Entries after “also recorded” stand apart in the source; their conditions may differ.
Assays:
PS1 = experiment: Immunoblot of PS1 expression in N2a cells transduced with lentiviral vector; type: cell-based, murine; conditions: N2a cells five days following transduction, versus GFP only or irrelevant siRNA; FIG. 6A
Excerpt: PS1 siRNA lentiviruses were verified by immunoblot analysis for the reduction of PS1 protein expression in N2a cells transduced with the lentiviral vector. N2a cells were transduced with the purified shRNA vector preparation followed by immunoblot analysis using anti-PS1 polyclonal antibody (Lazarov et al., 2005, J. Neurosci. 25: 2386-95.). Presenilins undergo cleavage in an alpha helical region of one of the cytoplasmic loops to produce a larger N-terminal (“PS1 NTF”) and a smaller C-terminal fragment which together form part of the functional protein. […] PS1 siRNA 4-11 (lane 1) refers to a different PS1 siRNA construct having the siRNA sequence of 5′ GGACCAACTTGCATTCCAT 3′ (SEQ ID NO:18) under the U6 promoter. The samples in lanes 6 and 7 were brain extracts of transgenic mice harboring PS1HWT (wild type human PS1; lane 6) and PS1ΔE9 (human PS1 with exon 9 deleted; lane 7), both of which served as positive controls for PS1 detection.

[1] = tested on: neurospheres derived from adult mice neural stem cells; experiment: Neurosphere diameter assay of singly dissociated adult NSCs plated for 8 days; type: cell-based; conditions: FIG. 4
Excerpt: Both α- and β-secretases can cleave membrane-bound APP and release the secreted form of APP (sAPP). Proteolytic cleavage of APP by α-secretase releases one form of the secreted APP referred to as sαAPP, whereas cleavage of APP by β-secretase releases a C-terminally truncated sAPP referred to as sβAPP. The significance and difference in the functionality of these two forms of sAPP remains elusive. To distinguish the role of the α or β form of sAPP in promoting neural stem cell proliferation, neurospheres derived from adult mice neural stem cells were dissociated to single cells, plated for 8 days, treated with GM6001 or GM6001NK alone, treated with GM6001 and supplemented with conditioned media from neuroblastoma N2a cells expressing wild type APP, or treated with GM6001 and supplemented with conditioned media from 192 Swe N2a cells. Media conditioned by the neuroblastoma N2a was enriched in sαAPP as the wild type APP expressed in these cells was preferentially processed by α-secretase to produce sαAPP. The 192 Swe N2a conditioned medium was enriched in sβAPP as the 192 Swe N2a cells expressing the Swedish mutant form of APP that was preferentially cleaved by β-secretase. See Bogdanovic et al., 2001, Dement Geriatr. Congn. Discord. 12:364-70.

sAPP = experiment: Immunoblot of sAPP in conditioned media of treated NSC (22C11 antibody); type: cell-based, mice; conditions: NSC cultures, versus GM6001NK; FIG. 3B
Excerpt: APPWT CM represents proliferation results of GM6001-treated cells supplemented with APPWT-conditioned media. (B) Immunoblot analysis of sAPP levels in conditioned media from GM6001- and GM6001NK-treated NSC using the 22C11 antibody.
Results were obtained as percentages of BrdU positive cells in GM6001-treated culture over BrdU positive cells in the control culture treated with DMSO (FIG. 3A). […] To examine the possibility that reduced proliferation was a result of reduced levels of sAPP, GM6001-treated cells were supplemented with conditioned media of neurospheres derived from APPWT mice, in which the α-secretase cleavage product sαAPP was present. […] The secretion levels of sAPP were also examined by immunoblot analysis in the conditioned media of GM6001- or GM6001NK-treated cells.

[2] = tested on: neural stem cells isolated from the SVZ of adult wild type mice; experiment: BrdU proliferation assay of neurosphere cultures treated with ADAM inhibitor; type: cell-based; conditions: treated 48 hours, compared to inactive analog GM6001NK; FIG. 3A
Method: The role for α-secretase in regulating proliferation of NSCs was examined. Neurosphere cultures were established from neural stem cells isolated from the SVZ of adult wild type mice. […] Thereafter, cells were pulse-labeled with 5 μM BrdU for 24 hours before fixation in 4% paraformaldehyde (PFA). The fixed cells were incubated with anti-BrdU antibodies and then HRP-conjugated secondary antibodies, followed by incubation with the TMD peroxidase substrate (Pierce Protein Research Products, Thermo Scientific, Rockford, Ill.). Signals were detected using a plate reader at 450-595 nm.

[3] = tested on: neurospheres from the SVZ of adult mice; experiment: BrdU proliferation assay of neurospheres (γ-secretase inhibitor or lentiviral siRNA); type: cell-based; conditions: 1 μM for 24 hours; FIG. 8A
Method: To further establish that reduced expression of PS1 decreased neural stem cell proliferation and induced neural stem cell differentiation, neurospheres established as described above from the SVZ of adult mice were subject to a proliferation assay following the treatment with the γ-secretase inhibitor L-685,458 (1 μM for 24 hours) (Sigma, St. Louis, Mo.). As a comparison, neurospheres were transduced with lentiviral vectors expressing either IR siRNA or PS1 siRNA. The proliferation assay was performed as follows: lentivirally-transduced neurospheres or γ-secretase inhibitor-treated neurospheres were singly dissociated and cultured (10,000 cells/well) with BrdU for 48 hours. BrdU-labeled cells were fixed in 4% PFA and immunolabeled with anti-BrdU antibodies followed by HRP-conjugated secondary antibodies. Thereafter, the cells were incubated with the TMD peroxidase substrate and read on a plate reader at 450-595 nm. […] Results were presented as a percentage of DMSO-treated NSCs.

neural stem cells = experiment: Neural stem cell differentiation assay on poly-L-ornithine/laminin; type: cell-based, mice
Method: The effects of γ-secretase inhibitor L-685,458 on neural stem cell differentiation was analyzed. Neural stem cells were allowed to differentiate when cultured on glass coverslips coated with 10 μg/mL poly-L-ornithine (Sigma, St. Louis, Mo.) and 5-10 μg/mL laminin (Sigma) in media with 5% fetal bovine serum without EGF and FGF.
γ-secretase inhibitor L-685,458-induced differentiation was further analyzed by immunostaining using antibodies to the astrocyte marker GFAP, and the early neural marker nestin. […] Scale bar=[…] (FIG. 8E, representative GFAP staining is marked with single arrows).
The length of the processes developed from the middle of the soma to the axon tip of GFAP positive cells after two days of L-685,458 treatment was analyzed and the results are shown in FIG. 8G. Twenty four hours after culturing whole neurospheres on laminin, vehicle-treated cultures remained mostly as neurospheres with slight cell differentiation (FIG. 8F, top panels).

5′ GGACCAACTTGCATTCCAT 3′ (expressed or natural sequence) [PS1 siRNA 4-11]
PS1 expression (PS1): reduced

CNC(=O)[C@H](Cc1c[nH]c2ccccc12)NC(=O)[C@@H](CC(=O)NO)CC(C)C [GM6001]
average diameter of neurospheres [1]: reduced the average diameter of neurospheres
levels of secreted sAPP in conditioned media (sAPP): reduced
BrdU immunoreactivity (BrdU positive cells relative to DMSO control) [2]: Reduced BrdU immunoreactivity

CC(C)C[C@H](NC(=O)[C@H](Cc1ccccc1)C[C@@H](O)[C@H](Cc1ccccc1)NC(=O)OC(C)(C)C)C(=O)N[C@@H](Cc1ccccc1)C(N)=O [L-685,458]
BrdU+ immunoreactivity (percentage of DMSO-treated NSCs) [3]: Reduced BrdU+ immunoreactivity; also recorded: reduced neural stem cell proliferation
GFAP immunostaining (neural stem cells; FIG. 8E): Positive staining of GFAP
neural progenitor cell differentiation (neural stem cells; differentiation medium, compared to DMSO, FIGS. 8B-8F): induced neural progenitor cell differentiation
immunostaining for β-tubulin and GFAP (neural stem cells; neurospheres on laminin, FIG. 8F): increased immunostaining for both β-tubulin and GFAP
differentiation of whole neurospheres cultured on laminin (neural stem cells; twenty four hours on laminin, FIG. 8F): extensive differentiation
number of differentiated cells (neural stem cells; two-day treatment, compared to control, FIG. 8C): increased number of differentiated cells
number of GFAP+Nestin+DCX+ cells (neural stem cells; two-day treatment, compared to control, FIG. 8H): dramatically decreased; also recorded: decrease
number of neurospheres formed from singly-dissociated neurosphere cells (neural stem cells; two-day treatment, compared with control, FIG. 8D): reduced number of neurospheres
